Reference: patent US8530501B2, “Salts and crystalline forms of a factor Xa inhibitor” (Millennium Pharmaceuticals, Inc., priority 2009, dated 2013)

Experiments:
[1] = Pharmacokinetics in rat after IV and PO administration; assay type: in vivo, male Sprague-Dawley rats; conditions: mean ± SD
Description: Compound I was used in the rat investigation. An intravenous (IV) and oral (PO) dose of Compound I (1.0 and 10 mg/kg, respectively) was prepared. The IV dose was solubilized in 50% PEG300 to yield a final concentration of 1.0 mg/mL with a final pH of 5.13. The PO dose was suspended in 0.5% methylcellulose at a concentration of 2.0 mg/mL with a final pH of 2.70.
(§1) A total of six male Sprague-Dawley rats (n=3/dosing group) from Charles River Laboratories (Hollister, Calif.), three male beagle dogs from Marshall BioResources (North Rose, N.Y.) and three male rhesus monkeys were utilized. […]
(§2) All animals were dosed based on individual weights with a PO gavage volume of 5.0 mL/kg and an IV bolus dose volume of 1.0 mL/kg. […] At collection times, urine volume and water consumption was recorded. […]
(§3) Plasma and urine samples were analyzed for Compound I concentration using a liquid chromatography tandem mass spectrometry (LC/MS/MS). […] The peak areas of the m/z 411→250 product ion (Compound I) were measured against those of the m/z 470→342 product ion (N-(2-(5-chloropyridin-2-ylcarbaomoyl)-4-methoxyphenyl)-4-(N,N-dimethylcarbamimidoyl)-2-fluorobenzamide) in positive ion mode. […]
(§4) Sample Compound I concentrations below the lower limit of quantitation (LLQ) were reported as <0.500 ng/mL. […]

[2] = Thermodynamic aqueous solubility by HPLC (filtration method); assay type: physicochemical; conditions: for pH: pH of the solubility suspension; for pH (with aqueous solubility): pH of suspension
Description: The aqueous thermodynamic solubility of selected salt forms was measured using the filtration method as described in Example 10.
The suspension was equilibrated at 25° C. for 24 hours then the pH was measured. The suspension was then filtered through a glass fiber C filter into a 96 well plate. The filtrate was then diluted by a factor of 101. Quantitation was by HPLC with reference to a standard solution of approximately 0.1 mg/mL in DMSO. Different volumes of the standard, diluted and undiluted sample solutions were injected. The solubility was calculated using the peak areas determined by integration of the peak found at the same retention time as the principal peak in the standard injection.

[3] = Pharmacokinetics in monkey after IV and PO administration; assay type: in vivo, male rhesus monkeys; conditions: PO 5 mg/kg, dose-normalized AUC(0-inf), mean ± SD
Description: (§5) For the dog and monkey study, Compound I was also used. An IV and PO dose of Compound I (1.0 and 5.0 mg/kg, respectively) was prepared. The IV dose was formulated similarly to that used in the rat study (50% PEG300 in water). The PO dose was suspended in 0.5% methylcellulose at a concentration of 1.0 mg/mL with a final pH of approximately 3.50.
as §1, §2, §3, §4

[4] = Stability on storage at 40° C./75% RH (XRPD, HPLC purity); assay type: physicochemical; conditions: for physical stability: 6 months of storage at 40° C./75% RH; for stability with respect to solid form and chemical purity: 40° C./75% RH (elevated humidity and temperature); for crystallinity upon storage (XRPD): 40° C./75% RH, no change in solid form; for Purity post 40° C./75% RH: HPLC purity after seventeen days at 40° C./75% RH; for Purity as isolated: HPLC purity pre 40° C./75% RH; for drop in chemical purity: upon storage at 40° C./75% RH
Source text: […] No significant thermal events were seen before degradation began for both the phosphate salt and the 1-hydroxy-2-naphthoate salts.

[5] = Pharmacokinetics in dog after IV and PO administration; assay type: in vivo, male beagle dogs; conditions: PO 5 mg/kg, dose-normalized AUC(0-inf), mean ± SD
Description: as §5, §1, §2, §3, §4

[6] = Gravimetric Vapour Sorption (GVS); assay type: physicochemical; conditions: for Hygroscopicity: moisture absorbed by weight: between 0 and 90% relative humidity; for physical stability after moisture exposure (XRPD pre- and post-GVS): exposed up to 90% RH at 25° C.
Description: Sorption isotherms were obtained using a SMS HT-DVS moisture sorption analyser by Surface Measurement Systems Limited, Middlesex, UK, controlled by SMS Analysis Suite software. The sample temperature was maintained at 25° C. by the instrument controls. The humidity was controlled by mixing streams of dry and wet nitrogen, with a total flow rate of 400 mL/min. The relative humidity was measured by a calibrated optical dew point transmitter (dynamic range of 0.5-100% RH), located near the sample. The weight change, (mass relaxation) of the sample as a function of % RH was constantly monitored by the microbalance (accuracy±0.005 mg).
Typically 5-20 mg of sample was placed in a tared mesh stainless steel liner within a stainless steel pan under ambient conditions. The sample was loaded and unloaded at 40% RH and 25° C. (typical room conditions).
A moisture sorption isotherm was performed as outlined in Table 13 (2 scans giving 1 complete cycle). The standard isotherm was performed at 25° C. at 10% RH intervals over a 0.5-90% RH range.
The sample was recovered after completion of the isotherm and re-analysed by XRPD.

[7] = Thermodynamic aqueous solubility by HPLC (ultracentrifugation method); assay type: physicochemical
Description: The physical chemical properties of Forms A and B were determined according to the procedures below and the data are summarized in Table 12.
The mixture was allowed to equilibrate for at least 48 hours at 37° C. under mild agitation. At each 24-48 hour interval, an aliquot was removed and the solution was separated from the solid via ultracentrifugation at >60,000 rpm for 20 min and then analyzed by HPLC for the concentration of the compound in the supernatant. Upon equilibration (concentration plateau is reached), the concentration was reported as solubility. This method is the preferred method in determining solubility as it attains the equilibrium and is measurement of the thermodynamic solubility.

[8] = Log P and Log D determination (potentiometric titration, octanol:ISA water); assay type: physicochemical; conditions: octanol/ionic-strength adjusted (ISA) water
Source text: Data were collected by potentiometric titration on a Sirius GlpKa instrument using three ratios of octanol:ionic-strength adjusted (ISA) water to generate Log P, Log Pion, and Log D values. The data were refined using Refinement Pro software v1.0. Prediction of Log P values was made using ACD v9 and Syracuse KOWWIN™ v1.67 software by Syracuse Research Corp., Syracuse, N.Y., USA.

[9] = pKa determination (Sirius GlpKa); assay type: physicochemical; conditions: 25° C.
Description: Data were collected on a Sirius GlpKa instrument by Sirius Analytical Ltd., UK with a D-PAS attachment. Measurements were made at 25° C. in aqueous solution by UV and in methanol water mixtures by potentiometry. The titration media was ionic-strength adjusted (ISA) with 0.15 M KCl (aq). The values found in the methanol water mixtures were corrected to 0% co-solvent via a Yasuda-Shedlovsky extrapolation. The data were refined using Refinement Pro software v1.0. Prediction of pKa values was made using ACD pKa prediction software v9.

[10] = Table 8, filtration method, water, 25° C., 24 hours
[11] = listed as 1-Hydroxy-2-naphthoate 2-5

physical stability [4]	Aqueous solubility [2, 10] [mg/mL]	pH ([2]; Table 8)	stability with respect to solid form and chemical purity [4]	crystallinity upon storage (XRPD) [4]	hygroscopicity (GVS) [6]	pH of saturated solution [7]	Aqueous Solubility (Ultracentrifugation Method) ([7]; in simulated gastric fluid)	Aqueous Solubility (Ultracentrifugation Method) ([7]; in simulated intestinal fluid) [mg/mL in simulated]	Aqueous Solubility (Ultracentrifugation Method) ([7]; in water) [mg/mL in water]	Hygroscopicity: moisture absorbed by weight [6]	physical stability after moisture exposure (XRPD pre- and post-GVS) [6]	Structure (SMILES)	further results
	6.9	2.2	stable	loss of crystallinity								O=C(NCc1cn(-c2ccc(-n3ccccc3=O)cc2)cn1)c1ccc(Cl)s1 [Phosphate Form 3]	pH (with aqueous solubility) ([2]; salts from 100-mg maturation experiments, listed as 2-4): pH = 2.18; Aqueous solubility ([2]; salts from 100-mg maturation experiments, water, listed as 2-4): 6.9 mg/mL; Purity post 40° C./75% RH ([4]; listed as Phosphate 2-4): 97.3%; Purity as isolated ([4]; listed as Phosphate 2-4): 98.0%; drop in chemical purity [4]: 0.7%
	4.1	2.0	stable		Neither salts showed hygroscopicity							O=C(NCc1cn(-c2ccc(-n3ccccc3=O)cc2)cn1)c1ccc(Cl)s1 [Phosphate Form 2]	pH (with aqueous solubility) ([2]; salts formed under reflux conditions, listed as Phosphoric acid MeCN): pH = 2.00; Aqueous solubility ([2]; salts formed under reflux conditions, water, listed as Phosphoric acid MeCN): 4.1 mg/mL

More lines, now with the values behind:

Structure (SMILES)	physical stability [4]	Aqueous solubility [2, 10] [mg/mL]	pH ([2]; Table 8)	stability with respect to solid form and chemical purity [4]	crystallinity upon storage (XRPD) [4]	hygroscopicity (GVS) [6]	pH of saturated solution [7]	Aqueous Solubility (Ultracentrifugation Method) ([7]; in simulated gastric fluid)	Aqueous Solubility (Ultracentrifugation Method) ([7]; in simulated intestinal fluid) [mg/mL in simulated]	Aqueous Solubility (Ultracentrifugation Method) ([7]; in water) [mg/mL in water]	Hygroscopicity: moisture absorbed by weight [6]	physical stability after moisture exposure (XRPD pre- and post-GVS) [6]	further results
O=C(NCc1cn(-c2ccc(-n3ccccc3=O)cc2)cn1)c1ccc(Cl)s1 [Compound I, 5-chloro-N-((1-(4-(2-oxopyridin-1(2H)-yl)phenyl)-1H-imidazol-4-yl)methyl)thiophene-2-carboxamide]	physically stable												Dose excreted unchanged in urine ([1]; IV 1 mg/kg): 0.248 ± 0.019%; AUC/D ([1]; PO 10 mg/kg, dose-normalized AUC(0-inf)): 6859 ± 1249 kg·h/mL; Aqueous solubility ([2]; Table 8, filtration method, water, 25° C., 24 hours, listed as Free base): 0.0008 mg/mL; pH ([2]; Table 8, listed as Free base): 7.8; AUC/D [3]: 8430 ± 3449 kg·h/mL; AUC/D [5]: 1095 ± 295 kg·h/mL
O=C(NCc1cn(-c2ccc(-n3ccccc3=O)cc2)cn1)c1ccc(Cl)s1 [Mesylate Form B]							2.7	12 mg/mL in simulated gastric	0.06	8.5	Absorbs approximately 2.5%	good physical stability	
O=C(NCc1cn(-c2ccc(-n3ccccc3=O)cc2)cn1)c1ccc(Cl)s1 [1-Hydroxy-2-naphthoate Form 1]		0.05	6.0	stable	loss of crystallinity	Neither salts showed hygroscopicity							pH (with aqueous solubility) ([2]; salts formed under reflux conditions, listed as 1-hydroxy-2-napthoic acid MeCN): pH = 5.99; Aqueous solubility ([2]; salts formed under reflux conditions, water, listed as 1-hydroxy-2-napthoic acid MeCN): 0.044 mg/mL; pH (with aqueous solubility) ([2]; salts from 100-mg maturation experiments, listed as 2-5): pH = 6.50; Aqueous solubility ([2]; salts from 100-mg maturation experiments, water, listed as 2-5): 0.068 mg/mL; Purity post 40° C./75% RH [4, 11]: 97.7%; Purity as isolated [4, 11]: 98.2%; drop in chemical purity ([4]; listed as 1-hydroxy-2-naphthoate salt): 0.5%; physical stability after moisture exposure (XRPD pre- and post-GVS) ([6]; listed as 1-hydroxy-2-naphthoate salt of Compound I): substantially stable; hysteresis in GVS ([6]; listed as 1-hydroxy-2-naphthoate salt Form 1): showed any hysteresis
O=C(NCc1cn(-c2ccc(-n3ccccc3=O)cc2)cn1)c1ccc(Cl)s1 [Mesylate Form A]	physically stable	5.1	1.8				3.3	1.3 mg/mL in simulated gastric	0.02	2.0	Absorbs approximately 2.5%	good physical stability	logP [8]: 2.25; logD ([8]; pH 7.4): 2.85; pKa [9]: 4.46; solubility at 24 h ([2]; water, 25 °C, pH 1.8, water, thermodynamic from solid, at pH 1.8): 5100 µg/mL; GVS uptake ([6]; at 90% RH): 2.8 wt %; hysteresis in GVS ([6]; listed as mesylate salt): no hysteresis evident
